# Test results: patent publication US20240174618A1, “SUBSTITUTED (2-HETEROARYLOXYPHENYL)SULFONATES, SALTS THEREOF AND THEIR USE AS HERBICIDAL AGENTS” (Bayer Aktiengesellschaft, priority 2021, published 2024)
# What was measured:
# Assay type in all cases: in vivo
# [1] = tested on: Amaranthus retroflexus (AMARE); experiment: C. Herbicidal pre-emergence efficacy, AMARE; details: scored after about 3 weeks
# Text: (§1) Seeds of monocotyledonous and dicotyledonous weed plants and crop plants were placed in plastic or organic planting pots and covered with soil. The compounds of the invention, formulated in the form of wettable powders (WP) or as emulsion concentrates (EC), were then applied to the surface of the covering soil as aqueous suspension or emulsion with addition of 0.5% additive at a water application rate equivalent to 600 l/ha (converted). After the treatment, the pots were placed in a greenhouse and kept under good growth conditions for the test plants. After about 3 weeks, the efficacy of the preparations was scored visually in comparison with untreated controls as percentages. For example, • 100% efficacy=plants have died, • 0% efficacy=like untreated control plants.
# (§2) Tables C1a to C14b below show the effects of selected compounds of the general formula (I) according to table 1 on various harmful plants at an application rate corresponding to 320 g/ha or less, which were obtained by the experimental procedure mentioned above.
# Glycine max (GLXMA) = experiment: D. Pre-emergence effect on useful plants, GLXMA; details: useful plant, application rate 80 g/ha
# Text: as §1
# (§3) Tables D1a to D5b below show the effects of selected compounds of the general formula (I) according to table 1 on various useful plants at an application rate corresponding to 320 g/ha or less, which were obtained by the experimental procedure mentioned above.
# Veronica persica (VERPE) [2] = experiment: C. Herbicidal pre-emergence efficacy, VERPE; details: scored after about 3 weeks
# Text: as §1, §2
# Oryza sativa (ORYSA) = experiment: D. Pre-emergence effect on useful plants, ORYSA; details: useful plant, application rate 80 g/ha
# Text: as §1, §3
# [3] = tested on: Echinochloa crus-galli (ECHCG); experiment: C. Herbicidal pre-emergence efficacy, ECHCG; details: scored after about 3 weeks
# Text: as §1, §2
# [4] = tested on: Abutilon theophrasti (ABUTH); experiment: E. Herbicidal post-emergence efficacy, ABUTH
# Experimental: (§4) Seeds of monocotyledonous and dicotyledonous weeds and crop plants were placed in sandy loam in plastic or organic planting pots, covered with soil and cultivated in a greenhouse under controlled growth conditions. 2 to 3 weeks after sowing, the test plants were treated at the one-leaf stage. The compounds of the invention, formulated in the form of wettable powders (WP) or as emulsion concentrates (EC), were then sprayed onto the green parts of the plants as aqueous suspension or emulsion with addition of 0.5% additive at a water application rate of 600 l/ha (converted). After the test plants had been kept in the greenhouse under optimum growth conditions for about 3 weeks, the activity of the preparations was rated visually in comparison to untreated controls.
# (§5) For example, • 100% efficacy=plants have died, • 0% action=like untreated control plants.
# (§6) Tables E1a to E12b below show the effects of selected compounds of the general formula (I) according to table 1 on various harmful plants at an application rate corresponding to 320 g/ha or less, which were obtained by the experimental procedure mentioned above.
# Setaria viridis (SETVI) [5] = experiment: C. Herbicidal pre-emergence efficacy, SETVI; details: scored after about 3 weeks
# Text: as §1, §2
# Lolium rigidum (LOLRI) [6] = experiment: E. Herbicidal post-emergence efficacy, LOLRI; details: application rate 320 g/ha
# Experimental: as §4, §5, §6
# [7] = tested on: Amaranthus retroflexus (AMARE); experiment: E. Herbicidal post-emergence efficacy, AMARE
# Experimental: as §4, §5, §6
# [8] = tested on: Polygonum convolvulus (POLCO); experiment: C. Herbicidal pre-emergence efficacy, POLCO; details: scored after about 3 weeks
# Text: as §1, §2
# Viola tricolor (VIOTR) [9] = experiment: C. Herbicidal pre-emergence efficacy, VIOTR
# Text: as §1, §2
# [10] = tested on: Polygonum convolvulus (POLCO); experiment: E. Herbicidal post-emergence efficacy, POLCO; details: application rate 320 g/ha
# Experimental: as §4, §5, §6
# [11] = tested on: Abutilon theophrasti (ABUTH); experiment: C. Herbicidal pre-emergence efficacy, ABUTH; details: scored after about 3 weeks
# Text: as §1, §2
# Setaria viridis (SETVI) [12] = experiment: E. Herbicidal post-emergence efficacy, SETVI; details: application rate 320 g/ha
# Experimental: as §4, §5, §6
# [13] = tested on: Matricaria inodora (MATIN); experiment: C. Herbicidal pre-emergence efficacy, MATIN; details: 320 g/ha, scored after about 3 weeks
# Text: as §1, §2
# Viola tricolor (VIOTR) [14] = experiment: E. Herbicidal post-emergence efficacy, VIOTR
# Experimental: as §4, §5, §6
# Avena fatua (AVEFA) = experiment: C. Herbicidal pre-emergence efficacy, AVEFA; details: 320 g/ha, scored after about 3 weeks
# Text: as §1, §2
# [15] = tested on: Echinochloa crus-galli (ECHCG); experiment: E. Herbicidal post-emergence efficacy, ECHCG
# Experimental: as §4, §5, §6
# Zea mays (ZEAMX) = experiment: F. Post-emergence effect on useful plants, ZEAMX; details: useful plant, application rate 80 g/ha
# Experimental: as §4, §5
# (§7) Tables F1a to F4 below show the effects of selected compounds of the general formula (I) according to table 1 on various useful plants at an application rate corresponding to 320 g/ha or less, which were obtained by the experimental procedure mentioned above.
# [16] = tested on: Alopecurus myosuroides (ALOMY); experiment: E. Herbicidal post-emergence efficacy, ALOMY; details: application rate 320 g/ha
# Experimental: as §4, §5, §6
# Lolium rigidum (LOLRI) [17] = experiment: C. Herbicidal pre-emergence efficacy, LOLRI; details: 320 g/ha, scored after about 3 weeks
# Text: as §1, §2
# [18] = tested on: Triticum aestivum (TRZAS); experiment: F. Post-emergence effect on useful plants, TRZAS; details: useful plant, application rate 80 g/ha
# Experimental: as §4, §5, §7
# Veronica persica (VERPE) [19] = experiment: E. Herbicidal post-emergence efficacy, VERPE
# Experimental: as §4, §5, §6
# [20] = tested on: Alopecurus myosuroides (ALOMY); experiment: C. Herbicidal pre-emergence efficacy, ALOMY; details: 320 g/ha, scored after about 3 weeks
# Text: as §1, §2
compound,measurement,setting,value
Cc1cccc(Oc2ncc(Cl)cn2)c1OS(=O)(=O)CCCCl [Example I-11],Pre-emergence efficacy against AMARE,[1]; 80 g/ha,100%
same,Pre-emergence efficacy against AMARE,[1]; 320 g/ha,100%
same,Pre-emergence efficacy against GLXMA in %,Glycine max (GLXMA),20%
same,Pre-emergence efficacy against VERPE,Veronica persica (VERPE) [2]; 80 g/ha,100%
same,Pre-emergence efficacy against VERPE,Veronica persica (VERPE) [2]; 320 g/ha,100%
same,Pre-emergence efficacy against ORYSA in %,Oryza sativa (ORYSA),20%
same,Pre-emergence efficacy against ECHCG,[3]; 80 g/ha,90%
same,Pre-emergence efficacy against ECHCG,[3]; 320 g/ha,100%
same,Post-emergence efficacy against ABUTH in %,[4]; application rate 80 g/ha,80%
same,Post-emergence efficacy against ABUTH in %,[4]; application rate 320 g/ha,90%
same,Pre-emergence efficacy against SETVI,Setaria viridis (SETVI) [5]; 80 g/ha,90%
same,Pre-emergence efficacy against SETVI,Setaria viridis (SETVI) [5]; 320 g/ha,100%
same,Post-emergence efficacy against LOLRI in %,Lolium rigidum (LOLRI) [6],90%
same,Post-emergence efficacy against AMARE in %,[7]; application rate 80 g/ha,90%
same,Post-emergence efficacy against AMARE in %,[7]; application rate 320 g/ha,100%
same,Pre-emergence efficacy against POLCO,[8]; 80 g/ha,80%
same,Pre-emergence efficacy against POLCO,[8]; 320 g/ha,80%
same,Pre-emergence efficacy against VIOTR in %,Viola tricolor (VIOTR) [9]; application rate 80 g/ha,100%
same,Pre-emergence efficacy against VIOTR in %,Viola tricolor (VIOTR) [9]; application rate 320 g/ha,100%
same,Post-emergence efficacy against POLCO in %,[10],100%
same,Pre-emergence efficacy against ABUTH,[11]; 80 g/ha,90%
same,Pre-emergence efficacy against ABUTH,[11]; 320 g/ha,90%
same,Post-emergence efficacy against SETVI in %,Setaria viridis (SETVI) [12],100%
same,Pre-emergence efficacy against MATIN,[13],80%
same,Post-emergence efficacy against VIOTR in %,Viola tricolor (VIOTR) [14]; application rate 80 g/ha,90%
same,Post-emergence efficacy against VIOTR in %,Viola tricolor (VIOTR) [14]; application rate 320 g/ha,100%
same,Pre-emergence efficacy against AVEFA,Avena fatua (AVEFA),90%
same,Post-emergence efficacy against ECHCG in %,[15]; application rate 80 g/ha,90%
same,Post-emergence efficacy against ECHCG in %,[15]; application rate 320 g/ha,90%
same,Post-emergence efficacy against ZEAMX in %,Zea mays (ZEAMX),20%
same,Post-emergence efficacy against ALOMY in %,[16],90%
same,Pre-emergence efficacy against LOLRI,Lolium rigidum (LOLRI) [17],80%
same,Post-emergence efficacy against TRZAS in %,[18],20%
same,Post-emergence efficacy against VERPE in %,Veronica persica (VERPE) [19]; application rate 80 g/ha,100%
same,Post-emergence efficacy against VERPE in %,Veronica persica (VERPE) [19]; application rate 320 g/ha,100%
same,Pre-emergence efficacy against ALOMY,[20],90%
